Drawing on patent publication US20250320184A1 (SIRONAX LTD., priority 2022, published 2025), this text covers IC50 for 53 compounds.

The target of this assay is T1, SARM1 (50-724) (Homo sapiens, UniProt Q6SZW1).
T1 sequence (Q6SZW1 50-724): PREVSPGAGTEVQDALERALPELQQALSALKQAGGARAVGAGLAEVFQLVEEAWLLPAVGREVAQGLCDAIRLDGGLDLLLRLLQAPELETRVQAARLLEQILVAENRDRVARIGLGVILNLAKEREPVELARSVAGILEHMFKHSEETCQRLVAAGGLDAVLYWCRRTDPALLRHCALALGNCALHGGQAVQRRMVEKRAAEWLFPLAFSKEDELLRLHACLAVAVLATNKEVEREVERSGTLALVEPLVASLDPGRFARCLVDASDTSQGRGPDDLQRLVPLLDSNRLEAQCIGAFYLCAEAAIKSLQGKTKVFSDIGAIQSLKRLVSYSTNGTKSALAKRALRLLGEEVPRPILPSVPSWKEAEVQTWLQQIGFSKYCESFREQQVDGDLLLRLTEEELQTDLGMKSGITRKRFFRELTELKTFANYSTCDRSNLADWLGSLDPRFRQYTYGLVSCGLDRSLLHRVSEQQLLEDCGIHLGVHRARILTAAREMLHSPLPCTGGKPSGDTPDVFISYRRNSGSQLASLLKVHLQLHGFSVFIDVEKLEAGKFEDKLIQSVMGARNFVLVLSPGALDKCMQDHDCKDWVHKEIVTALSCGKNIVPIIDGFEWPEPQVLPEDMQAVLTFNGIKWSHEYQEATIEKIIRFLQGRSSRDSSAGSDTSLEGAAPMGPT
In words: biochemical.
Experimental: An enzymatic assay was performed in a 384-well plate using Dulbecco's phosphate-buffered saline (PBS) as the reaction buffer. […] The reaction was initiated by adding a mixture of 200 μM nicotinamide mononucleotide (NMN) as activator and 100 μM NAD^+ as substrate. After 1 h of incubation at room temperature, the reaction was terminated with 10 times volume of 70% acetonitrile, then centrifuged at 3800 rpm for 10 min.
As for `CCC(C(N)=O)c1ccc(NS(=O)(=O)c2cccc(Cl)c2Cl)cc1` (single isomer, unassigned) [Compound 270A], the IC50 was 100 to 500 nM. Consider `CCC(C(N)=O)c1ccc(NS(=O)(=O)c2cccc(Cl)c2Cl)cc1` (single isomer, unassigned) [Compound 270], for which the half-inhibitory concentration (IC50) is less than 100 nM.

Regarding `CC[C@H](C(N)=O)c1ccc(N[C@H](C)c2nc(Cl)c(Cl)s2)cc1` (single isomer, unassigned) [Compound 302A], the IC50 was more than 1000 nM. In the case of `CC[C@@H](C(N)=O)c1ccc(N[C@H](C)c2nc(Cl)c(Cl)s2)cc1` (single isomer, unassigned) [Compound 302B] it was more than 1000 nM; in that of `CC[C@@H](C(N)=O)c1ccc(N[C@@H](C)c2nc(Cl)c(Cl)s2)cc1` (single isomer, unassigned) [Compound 302C], 100 to 500 nM. Compound `CC[C@H](C(N)=O)c1ccc(N[C@@H](C)c2nc(Cl)c(Cl)s2)cc1` (single isomer, unassigned) [Compound 302] returned an IC50 of less than 100 nM. As for `O=C1NC(CO)CCc2ccc(NS(=O)(=O)c3cccc(Cl)c3Cl)cc21` (single isomer, unassigned) [Compound 304B], the IC50 is 500 to 1000 nM. `O=C1NC(CO)CCc2ccc(NS(=O)(=O)c3cccc(Cl)c3Cl)cc21` (single isomer, unassigned) [Compound 304] returned an IC50 of less than 100 nM. Next, `Cc1c2ccc(NC(C)c3nc(Cl)c(Cl)s3)cc2nn1CC(N)=O` (single isomer, unassigned) [Compound 312B]: more than 1000 nM. Compound `Cc1c2ccc(NC(C)c3nc(Cl)c(Cl)s3)cc2nn1CC(N)=O` (single isomer, unassigned) [Compound 312] gave an IC50 of less than 100 nM.

Compound `CC(Nc1ccc2c(c1)C(=O)N(CC(N)=O)C2(C)C)c1nc(Cl)c(Cl)s1` (single isomer, unassigned) [Compound 320A] registered an IC50 of more than 1000 nM.

On to `CC(Nc1ccc2c(c1)C(=O)N(CC(N)=O)C2(C)C)c1nc(Cl)c(Cl)s1` (single isomer, unassigned) [Compound 320], for which the concentration for half-maximal inhibition (IC50) is less than 100 nM.

Regarding `CC(Nc1cc(F)c2ncn(CC(N)=O)c(=O)c2c1)c1nc(Cl)c(Cl)s1` (single isomer, unassigned) [Compound 323A], the half-inhibitory concentration (IC50) was more than 1000 nM. With `CC(Nc1cc(F)c2ncn(CC(N)=O)c(=O)c2c1)c1nc(Cl)c(Cl)s1` (single isomer, unassigned) [Compound 323], the 50% inhibitory concentration (IC50) was less than 100 nM. In the case of `Cc1c2ccc(NC(C)c3snc(Cl)c3Cl)cc2nn1CC(N)=O` (single isomer, unassigned) [Compound 341A] it was less than 100 nM; in that of `Cc1c2ccc(NC(C)c3snc(Cl)c3Cl)cc2nn1CC(N)=O` (single isomer, unassigned) [Compound 341B], more than 1000 nM; in that of `Cc1c2ccc(NC(C)c3sc(Cl)nc3Cl)cc2nn1CC(N)=O` (single isomer, unassigned) [Compound 347A], more than 1000 nM. In the case of `Cc1c2ccc(NC(C)c3sc(Cl)nc3Cl)cc2nn1CC(N)=O` (single isomer, unassigned) [Compound 347], the IC50 was less than 100 nM.

On to `CC(Nc1ccc2c(C(F)F)n(CC(N)=O)nc2c1)c1nc(Cl)c(Cl)s1` (single isomer, unassigned) [Compound 355A], for which the half-inhibitory concentration (IC50) is less than 100 nM. Next, `CC(Nc1ccc2c(C(F)F)n(CC(N)=O)nc2c1)c1nc(Cl)c(Cl)s1` (single isomer, unassigned) [Compound 355B]: more than 1000 nM; `Cc1nn(CC(N)=O)c(=O)c2cc(NC(C)c3nc(Cl)c(Cl)s3)ccc12` (single isomer, unassigned) [Compound 357]: less than 100 nM. In the case of `Cc1nn(CC(N)=O)c(=O)c2cc(NC(C)c3nc(Cl)c(Cl)s3)ccc12` (single isomer, unassigned) [Compound 358] it was more than 1000 nM.

Compound `Cc1nc(C(C)Nc2ccc3c(C)n(CC(N)=O)nc3c2)sc1Cl` (single isomer, unassigned) [Compound 362] came in with a concentration for half-maximal inhibition (IC50) of less than 100 nM. Consider `Cc1nc(C(C)Nc2ccc3c(C)n(CC(N)=O)nc3c2)sc1Cl` (single isomer, unassigned) [Compound 363], for which the 50% inhibitory concentration (IC50) is more than 1000 nM.

`CC(Nc1ccc2c(C(F)(F)F)n(CC(N)=O)nc2c1)c1nc(Cl)c(Cl)s1` (single isomer, unassigned) [Compound 367] returned an IC50 of less than 100 nM. For the compound `CC(Nc1ccc2c(C(F)(F)F)n(CC(N)=O)nc2c1)c1nc(Cl)c(Cl)s1` (single isomer, unassigned) [Compound 368], the half-maximal inhibitory concentration (IC50) is more than 1000 nM. In turn, `[2H]C(C)(Nc1ccc2c(C)n(CC(N)=O)nc2c1)c1nc(Cl)c(Cl)s1` (single isomer, unassigned) [Compound 377] displayed a half-inhibitory concentration (IC50) of less than 100 nM. The compound `[2H]C(C)(Nc1ccc2c(C)n(CC(N)=O)nc2c1)c1nc(Cl)c(Cl)s1` (single isomer, unassigned) [Compound 378] yielded a half-inhibitory concentration (IC50) of more than 1000 nM. `Cc1sc(C(C)Nc2ccc3c(C)n(CC(N)=O)nc3c2)nc1Cl` (single isomer, unassigned) [Compound 380] displayed a half-inhibitory concentration (IC50) of less than 100 nM. Take `Cc1sc(C(C)Nc2ccc3c(C)n(CC(N)=O)nc3c2)nc1Cl` (single isomer, unassigned) [Compound 381]: the IC50 was more than 1000 nM. The compound `CC(Nc1ccc2nc[nH]c(=O)c2n1)c1c(Cl)ccc(F)c1Cl` (single isomer, unassigned) [Compound 382] returned an IC50 of less than 100 nM.

Turning to `CC(Nc1ccc2nc[nH]c(=O)c2n1)c1c(Cl)ccc(F)c1Cl` (single isomer, unassigned) [Compound 383], the IC50 is more than 1000 nM. For the compound `CC(Nc1ccc2nc[nH]c(=O)c2n1)c1ccc(F)c(Cl)c1Cl` (single isomer, unassigned) [Compound 385], the concentration for half-maximal inhibition (IC50) was more than 1000 nM.

The compound `CC(Nc1ccc2nc[nH]c(=O)c2n1)c1ccc(F)c(Cl)c1Cl` (single isomer, unassigned) [Compound 386] came in with an IC50 of less than 100 nM.

For the compound `CC(Nc1ccc2nc[nH]c(=O)c2n1)c1c(F)ccc(Cl)c1Cl` (single isomer, unassigned) [Compound 387], the IC50 was less than 100 nM. The compound `CC(Nc1ccc2nc[nH]c(=O)c2n1)c1c(F)ccc(Cl)c1Cl` (single isomer, unassigned) [Compound 388] registered an IC50 of more than 1000 nM. `Cc1c2c(F)cc(NC(C)c3nc(Cl)c(Cl)s3)cc2nn1CC(N)=O` (single isomer, unassigned) [Compound 390]: the IC50 was more than 1000 nM. With `Cc1c2c(F)cc(NC(C)c3nc(Cl)c(Cl)s3)cc2nn1CC(N)=O` (single isomer, unassigned) [Compound 391], the half-inhibitory concentration (IC50) was less than 100 nM.

With `COc1nccc(C(C)Nc2ccc3c(c2)C(=O)NCC3)c1Cl` (single isomer, unassigned) [Example 95], the IC50 fell in the range of 500 to 1000 nM. The compound `CC(Nc1ccc2c(c1)C(=O)NCC2)c1cccc(Cl)c1Cl` (single isomer, unassigned) [Example 111] showed a 50% inhibitory concentration (IC50) of less than 100 nM.

`CC(Nc1ccc2nc[nH]c(=O)c2c1)c1cccc(Cl)c1Cl` (single isomer, unassigned) [Example 152A]: the IC50 lay in the range of 500 to 1000 nM. Compound `CC(Nc1ccc2nc[nH]c(=O)c2c1)c1cccc(Cl)c1Cl` (single isomer, unassigned) [Example 152] had a concentration for half-maximal inhibition (IC50) of less than 100 nM.

In the case of `C[C@@H](Nc1ccc2cc[nH]c(=O)c2c1)c1nccc(Cl)c1Cl` (single isomer, unassigned) [Example 194A, (S or R)-7-((1-(3,4-dichloropyridin-2-yl)ethyl)amino)isoquinolin-1(2H)-one], the IC50 was less than 100 nM. With `CC(Nc1ccc2cc[nH]c(=O)c2c1)c1nccc(Cl)c1Cl` (single isomer, unassigned) [Example 194B], the IC50 is more than 1000 nM. Compound `CC(Nc1ccc2nc[nH]c(=O)c2c1)c1c(Cl)ccc(F)c1Cl` (single isomer, unassigned) [Example 201A] showed an IC50 of more than 1000 nM. As to `CC(Nc1ccc2nc[nH]c(=O)c2c1)c1c(Cl)ccc(F)c1Cl` (single isomer, unassigned) [Example 201], the half-maximal inhibitory concentration (IC50) was less than 100 nM. Compound `Cc1n[nH]c(=O)c2cc(N[C@H](C)c3c(Cl)ccc(F)c3Cl)ccc12` (single isomer, unassigned) [Example 237A] displayed an IC50 of 500 to 1000 nM. For the compound `Cc1n[nH]c(=O)c2cc(N[C@@H](C)c3c(Cl)ccc(F)c3Cl)ccc12` (single isomer, unassigned) [Example 237], the IC50 is less than 100 nM.

`Cc1n[nH]c(=O)c2cc(N[C@@H](C)c3nc(Cl)c(Cl)s3)ccc12` (single isomer, unassigned) [Example 239A]: the half-inhibitory concentration (IC50) is less than 100 nM.

In the case of `Cc1n[nH]c(=O)c2cc(NC(C)c3nc(Cl)c(Cl)s3)ccc12` (single isomer, unassigned) [Example 239B], the concentration for half-maximal inhibition (IC50) was more than 1000 nM.

Regarding `CC(Nc1cc(F)c2ncn(-c3ccn[nH]3)c(=O)c2c1)c1nc(Cl)c(Cl)s1` (single isomer, unassigned) [Example 356A], the IC50 was more than 1000 nM.

`CC(Nc1cc(F)c2ncn(-c3ccn[nH]3)c(=O)c2c1)c1nc(Cl)c(Cl)s1` (single isomer, unassigned) [Example 356]: the IC50 is less than 100 nM. Next, `CC(Nc1cc(F)c2ncn(-c3cn[nH]c3)c(=O)c2c1)c1nc(Cl)c(Cl)s1` (single isomer, unassigned) [Example 374]: less than 100 nM.

For orientation: IC50 means the concentration at which inhibition is half-maximal.
